We go through 24 molecules from ChEMBL document CHEMBL4665776, “Design, synthesis and SAR study of novel C2-pyrazolopyrimidine amides and amide isosteres as allosteric integrase inhibitors” (Bioorg Med Chem Lett, 2020).

Data set [1] relates to Human immunodeficiency virus 1. The experiment in a line: Antiviral activity against wild type HIV-1 NL4-3 in human MT2 cells assessed as inhibition of viral out growth replication in presence of 40 mg/ml human serum albumin by HIV1 infectivity assay. The class given is functional, organism-based. The note with it: Human immunodeficiency virus 1, NL4-3, MT2.
Data set [2] in a line: Cytotoxicity against human MT2 cells. The class given is cell-based.
Data set [3] in a line: Displacement of [3H]2-tert-butoxy-2-(2-methyl-4-p-tolylquinolin-3-yl)acetic acid from LEDGF binding site of HIV1 integrase. Further details: species or system Human immunodeficiency virus 1. In general terms: Loss of bound radioactivity is the signal in a displacement assay; it reports binding, not function.
For data set [4], the system named is Human immunodeficiency virus 1. The experiment in a line: Antiviral activity against wild type HIV-1 NL4-3 in human MT2 cells assessed as inhibition of viral out growth replication by HIV1 infectivity assay. The data set is classed as functional, organism-based. The conditions noted are these: Human immunodeficiency virus 1, NL4-3, MT2.
Data set [5] in a line: Metabolic stability in rat liver microsomes assessed as parent compound remaining at 0.5 uM incubated for 10 mins. The data set is classed as ADME, Microsome. The conditions noted are these: read-out: Stabilty. Background: Microsomes from liver hold many membrane-bound enzymes, among them those of drug oxidation.
Data set [6] in a line: Volume of distribution at steady state in Sprague-Dawley rat at 1 mg/kg, iv. The conditions noted are these: in vivo, read-out: Vdss. The data set is classed as ADME, organism-based.
A short description of data set [7]: Clearance in Sprague-Dawley rat at 1 mg/kg, iv. The data set is classed as ADME, organism-based. The note with it: in vivo.
Data set [8] in a line: Half life in Sprague-Dawley rat at 1 mg/kg, iv. The data set is classed as ADME, organism-based. The conditions noted are these: in vivo.
The nature of data set [9]: Cmax in Sprague-Dawley rat at 1 mg/kg, iv. The class given is ADME, organism-based. Further details: route intravenous, dose 1 mg/kg. The note with it: in vivo.
In data set [10] the test system is Human immunodeficiency virus 1. The experiment in a line: Antiviral activity against HIV-1 NL4-3 harboring integrase A128T mutant in human MT2 cells assessed as inhibition of viral out growth replication by HIV1 infectivity assay. The conditions noted are these: Human immunodeficiency virus 1, NL4-3, MT2. The data set is classed as functional, organism-based.

As usually defined, the EC50 is the concentration that produces a half-maximal response. In general, CC50 refers to the concentration that lowers cell viability or growth by half. Higher therefore signals better tolerance by the cells. The term IC50 denotes the concentration that gives 50% inhibition. The low end stands for higher potency, the high end for lower potency. Usually clearance stands for the rate of elimination divided by the concentration. Low values mean inefficient removal, high ones efficient removal. As a reminder, the half-life is how long it takes for the measured level to halve. A lower half-life goes with rapid decline. One may read the Cmax as the peak of the concentration-time curve.

Each structure is given as a SMILES string.

Take `Cc1nc2cc(C(=O)NCC3CCOCC3)nn2c(-c2cc(F)c3c(c2C)CCCO3)c1[C@H](OC(C)(C)C)C(=O)O`: the EC50 in data set [1] came out at 2.66 µM; in data set [4], 0.608 µM. The CC50 in data set [2] is greater than 40 µM. For the same molecule, the IC50 in data set [3] worked out at 0.42 µM.
On to `Cc1nc2cc(C(=O)NCc3ccc(F)cc3N3CCCC3=O)nn2c(-c2cc(F)c3c(c2C)CCCO3)c1[C@H](OC(C)(C)C)C(=O)O`, for which the EC50 in [1] amounted to 9.47 µM; in data set [4] it was 2.6 µM. Further, in data set [2], the CC50 was greater than 40 µM. Also, the IC50 in [3] amounted to 0.065 µM.
In the case of `CNC(=O)c1cc(F)ccc1CNC(=O)c1cc2nc(C)c([C@H](OC(C)(C)C)C(=O)O)c(-c3cc(F)c4c(c3C)CCCO4)n2n1`, the EC50 was greater than 20 µM in data set [1] and 3.2 µM in data set [4]. This molecule registered a CC50 in [2] greater than 40 µM. For the same molecule, in data set [3], the IC50 was found to be 0.042 µM.
For the molecule `Cc1nc2cc(C(=O)NCC3CCCCC3)nn2c(-c2cc(F)c3c(c2C)CCCO3)c1[C@H](OC(C)(C)C)C(=O)O`, the EC50 is 0.342 µM in data set [1] and 0.012 µM in [4]. Besides, the CC50 in data set [2] was greater than 40 µM.
As for `Cc1nc2cc(C(=O)NCCN3CCOCC3)nn2c(-c2cc(F)c3c(c2C)CCCO3)c1[C@H](OC(C)(C)C)C(=O)O`, the figures for the EC50 in [1] and in data set [4] were 11.7 µM and 5.92 µM, respectively. For the same molecule, in data set [2], the CC50 was greater than 40 µM. This molecule also returned an IC50 in data set [3] of 0.815 µM.
`Cc1nc2cc(C(=O)NCc3ccc(F)c(C4CC4)c3)nn2c(-c2cc(F)c3c(c2C)CCCO3)c1[C@H](OC(C)(C)C)C(=O)O`: the EC50 turned out to be 0.361 µM in [1] and 0.014 µM in data set [4]. In data set [2], this molecule returned a CC50 greater than 40 µM. For the same molecule, the IC50 in data set [3] turned out to be 0.065 µM.
`Cc1nc2cc(C(=O)NCc3ccc(F)cc3O)nn2c(-c2cc(F)c3c(c2C)CCCO3)c1[C@H](OC(C)(C)C)C(=O)O`: the EC50 in [1] was determined as 1.52 µM; in data set [4], 0.037 µM. In data set [2], this molecule returned a CC50 greater than 40 µM. In addition, the IC50 in data set [3] is 0.067 µM.
The matching figures for `Cc1nc2cc(C(=O)NCCC(C)C)nn2c(-c2cc(F)c3c(c2C)CCCO3)c1[C@H](OC(C)(C)C)C(=O)O`: 0.122 µM, 0.018 µM, greater than 40 µM and 0.12 µM.
Take `Cc1nc2cc(C(=O)NCCC(C)(C)C)nn2c(-c2cc(F)c3c(c2C)CCCO3)c1[C@H](OC(C)(C)C)C(=O)O`: in data set [5], the remaining at 10 min, 0.5 µM was found to be 86%. The Vd in data set [6] was found to be 0.6 L/kg. For the same molecule, in data set [7], the clearance is 47 mL/min/kg. For the same molecule, in data set [8], the half-life is 42 min. In [9], this molecule yielded a Cmax of 79 nM. Besides, the EC50 in data set [1] was 0.105 µM; in data set [10] it was 0.075 µM; in data set [4], 0.013 µM. In data set [2], this molecule showed a CC50 greater than 40 µM. The IC50 in data set [3] came to 0.084 µM.
Take `Cc1nc2cc(-c3nc(Cc4ccc(F)cc4)no3)nn2c(-c2cc(F)c3c(c2C)CCCO3)c1[C@H](OC(C)(C)C)C(=O)O`: the EC50 in data set [1] was 2.53 µM; in data set [4], 0.028 µM. Also, the CC50 in data set [2] was greater than 20 µM. This molecule returned an IC50 in [3] of 0.117 µM.
The matching figures for `Cc1nc2cc(C(=O)NCCC3CCCCC3)nn2c(-c2cc(F)c3c(c2C)CCCO3)c1[C@H](OC(C)(C)C)C(=O)O`: 0.143 µM, 0.06 µM, greater than 40 µM and 0.063 µM.
The matching figures for `Cc1nc2cc(C(=O)NCc3ccc(F)cc3S(C)(=O)=O)nn2c(-c2cc(F)c3c(c2C)CCCO3)c1[C@H](OC(C)(C)C)C(=O)O`: 6.57 µM, 0.118 µM, greater than 40 µM and 0.069 µM.
The matching figures for `COc1cc(F)ccc1CNC(=O)c1cc2nc(C)c([C@H](OC(C)(C)C)C(=O)O)c(-c3cc(F)c4c(c3C)CCCO4)n2n1`: 0.347 µM, 0.053 µM, greater than 40 µM and 0.021 µM.
With `Cc1nc2cc(C(=O)NCc3ccc(F)cc3-n3cncn3)nn2c(-c2cc(F)c3c(c2C)CCCO3)c1[C@H](OC(C)(C)C)C(=O)O`, the EC50 in data set [1] turned out to be 2.6 µM; in data set [4], 0.508 µM. The molecule also yielded a CC50 in data set [2] greater than 40 µM. This molecule had an IC50 in [3] of 0.021 µM.
Take `Cc1nc2cc(C(=O)NCc3ccc(F)cc3)nn2c(-c2cc(F)c3c(c2C)CCCO3)c1[C@H](OC(C)(C)C)C(=O)O`: the half-maximal effective concentration (EC50) in data set [1] was determined as 0.591 µM; in data set [4], 0.05 µM. For the same molecule, the CC50 in data set [2] was greater than 40 µM. In data set [3], the IC50 came out at 0.044 µM.
On to `Cc1nc2cc(-c3ncc(Cc4ccc(F)cc4)s3)nn2c(-c2cc(F)c3c(c2C)CCCO3)c1[C@H](OC(C)(C)C)C(=O)O`, for which the remaining at 10 min, 0.5 µM in data set [5] amounted to 100%. Moreover, the Vd in data set [6] was 3.3 L/kg. This molecule displayed a clearance in [7] of 53 mL/min/kg. The half-life in data set [8] was 90 min. Further, the peak level in [9] (Cmax) was 343 nM. The values for the EC50 in [1], in data set [10] and in data set [4] were 0.034 µM, 0.059 µM and 0.001 µM, respectively. In [2], this molecule yielded a CC50 greater than 20 µM. In data set [3], this molecule displayed an IC50 of 0.015 µM.
In the case of `CCCNC(=O)c1cc2nc(C)c([C@H](OC(C)(C)C)C(=O)O)c(-c3cc(F)c4c(c3C)CCCO4)n2n1`, the EC50 came to 2.34 µM in data set [1] and 0.262 µM in [4]. The same molecule displayed a CC50 in [2] greater than 40 µM. In addition, in [3], the IC50 turned out to be 1.12 µM.
Taken in the same sequence, the figures for `CCCc1cc(CNC(=O)c2cc3nc(C)c([C@H](OC(C)(C)C)C(=O)O)c(-c4cc(F)c5c(c4C)CCCO5)n3n2)ccc1F` were 0.247 µM, 0.012 µM, greater than 20 µM and 0.108 µM.
As for `COc1cc(CNC(=O)c2cc3nc(C)c([C@H](OC(C)(C)C)C(=O)O)c(-c4cc(F)c5c(c4C)CCCO5)n3n2)ccc1F`, the EC50 in data set [1] stood at 0.34 µM; in [4], 0.02 µM. For the same molecule, the CC50 in [2] was greater than 20 µM.
For the molecule `CCc1cc(CNC(=O)c2cc3nc(C)c([C@H](OC(C)(C)C)C(=O)O)c(-c4cc(F)c5c(c4C)CCCO5)n3n2)ccc1F`, the EC50 came out at 0.325 µM in [1] and 0.015 µM in [4]. Besides, the CC50 in data set [2] is greater than 40 µM. The IC50 in data set [3] worked out at 0.048 µM.
Regarding `Cc1nc2cc(C(=O)NCCC3CCOCC3)nn2c(-c2cc(F)c3c(c2C)CCCO3)c1[C@H](OC(C)(C)C)C(=O)O`, the EC50 was 1.77 µM in data set [1] and 0.173 µM in data set [4]. Further, the CC50 in data set [2] is greater than 40 µM. In data set [3], the IC50 stood at 0.095 µM.
With `Cc1cc(CNC(=O)c2cc3nc(C)c([C@H](OC(C)(C)C)C(=O)O)c(-c4cc(F)c5c(c4C)CCCO5)n3n2)ccc1F`, the remaining at 10 min, 0.5 µM in [5] stood at 96%. In addition, the Vd in data set [6] worked out at 0.6 L/kg. The molecule also showed a clearance in [7] of 58 mL/min/kg. In data set [8], the half-life was 24 min. Also, the Cmax in data set [9] was found to be 7 nM. Moreover, the EC50 was 0.236 µM in [1], 0.035 µM in data set [10] and 0.015 µM in data set [4]. In [2], this molecule registered a cytotoxic concentration (CC50) greater than 40 µM. Moreover, the IC50 in data set [3] was 0.042 µM.
For `Cc1nc2cc(-c3ncc(-c4ccc(F)cc4)s3)nn2c(-c2cc(F)c3c(c2C)CCCO3)c1[C@H](OC(C)(C)C)C(=O)O`, the EC50 in data set [1] is 0.296 µM; in data set [4], 0.01 µM. Further, in [2], the CC50 is greater than 20 µM. The same molecule yielded an IC50 in [3] of 0.195 µM.
Turning to `Cc1nc2cc(-c3ncc(Cc4ccc(F)cc4)o3)nn2c(-c2cc(F)c3c(c2C)CCCO3)c1[C@H](OC(C)(C)C)C(=O)O`, the half-maximal effective concentration (EC50) in data set [1] is 0.324 µM; in data set [10] it was 0.056 µM; in data set [4], 0.006 µM. Besides, the cytotoxic concentration (CC50) in data set [2] was greater than 20 µM. In addition, the half-maximal inhibitory concentration (IC50) in data set [3] was determined as 0.021 µM.
